≈ marks a conversion by molar mass, not a printed value.
How the values were obtained:
[1] = tested on: Aspergillus fumigatus; assay: Concentration required to inhibit 90-100% of visible fungal growth in Aspergillus fumigatus (WM1) tested in vitro; assay type: functional
[2] = tested on: Mus musculus; assay: Ability to induce tail vein irritation in mice administered intravenously determined by tail vein assay; Activity- clean; assay type: functional, organism-based
[3] = tested on: Candida albicans; assay: Concentration required to inhibit 90-100% of visible fungal growth in Candida albicans (A26) tested in vitro; assay type: functional
[4] = tested on: Cryptococcus neoformans; assay: Concentration required to inhibit 90-100% of visible fungal growth in (M1 106) tested in vitro; assay type: functional
[5] = tested on: Mus musculus; assay: Effective dose required to cure 50% of fungal infection in mice administered intraperitoneally tested in vivo; assay type: functional
[6] = tested on: Mus musculus; assay: Ability to induce tail vein irritation in mice administered intravenously determined by tail vein assay; Activity- Positive; assay type: functional, organism-based

Structure (SMILES)	MIC [1]	Activity [2]	MIC [3]	MIC [4]	ED50 [5]	Activity [6]
C/C=C1/NC(=O)[C@H]([C@H](C)O)NC(=O)[C@H](CCN)NC(=O)[C@H](CCCCN)NC(=O)[C@H](CC(=O)O)NC(=O)[C@@H](CCN)NC(=O)[C@@H](NC(=O)C[C@H](O)CCCCCCCCCCC)COC(=O)[C@H]([C@H](O)CCl)NC(=O)[C@H]([C@H](O)C(=O)NCC(=O)OC)NC1=O	> 20 µg/mL	Activity- clean	2.5 µg/mL (≈ 1.95 µM)	0.08 µg/mL (≈ 0.0626 µM)	> 20 mg/kg	
C/C=C1/NC(=O)[C@H]([C@H](C)O)NC(=O)[C@H](CCN)NC(=O)[C@H](CCCCN)NC(=O)[C@H](CC(=O)O)NC(=O)[C@@H](CCN)NC(=O)[C@@H](NC(=O)C[C@H](O)CCCCCCCCCCC)COC(=O)[C@H]([C@H](O)CCl)NC(=O)[C@H]([C@H](O)C(=O)NC2CCC2)NC1=O	> 20 µg/mL	Activity- clean	5 µg/mL (≈ 3.97 µM)	1.25 µg/mL (≈ 0.991 µM)	> 20 mg/kg	
C/C=C1/NC(=O)[C@H]([C@H](C)O)NC(=O)[C@H](CCN)NC(=O)[C@H](CCCCN)NC(=O)[C@H](CC(=O)O)NC(=O)[C@@H](CCN)NC(=O)[C@@H](NC(=O)C[C@H](O)CCCCCCCCCCC)COC(=O)[C@H]([C@H](O)CCl)NC(=O)[C@H]([C@H](O)C(=O)NCCCC)NC1=O	> 20 µg/mL	Activity- clean	20 µg/mL (≈ 15.8 µM)	1.25 µg/mL (≈ 0.99 µM)	> 20 mg/kg	
C/C=C1/NC(=O)[C@H]([C@H](C)O)NC(=O)[C@H](CCN)NC(=O)[C@H](CCCCN)NC(=O)[C@H](CC(=O)O)NC(=O)[C@@H](CCN)NC(=O)[C@@H](NC(=O)C[C@H](O)CCCCCCCCCCC)COC(=O)[C@H]([C@H](O)CCl)NC(=O)[C@H]([C@H](O)C(=O)NCCN(C)C)NC1=O	> 20 µg/mL	Activity- clean	5 µg/mL (≈ 3.91 µM)	1.25 µg/mL (≈ 0.978 µM)	> 20 mg/kg	
C/C=C1\NC(=O)[C@H]([C@H](C)O)NC(=O)[C@H](CCN)NC(=O)[C@H](CCCCN)NC(=O)[C@H](CC(=O)O)NC(=O)[C@@H](CCN)NC(=O)[C@@H](NC(=O)C[C@H](O)CCCCCCCCCCC)COC(=O)[C@H]([C@H](O)CCl)NC(=O)[C@H]([C@H](O)C(=O)NCCC)NC1=O	> 20 µg/mL	Activity- clean	20 µg/mL (≈ 16 µM)	5 µg/mL (≈ 4 µM)	14 mg/kg	
C/C=C1/NC(=O)[C@H]([C@H](C)O)NC(=O)[C@H](CCN)NC(=O)[C@H](CCCCN)NC(=O)[C@H](CC(=O)O)NC(=O)[C@@H](CCN)NC(=O)[C@@H](NC(=O)C[C@H](O)CCCCCCCCCCC)COC(=O)[C@H]([C@H](O)CCl)NC(=O)[C@H]([C@H](O)C(=O)NCCO)NC1=O	> 20 µg/mL	Activity- clean	5 µg/mL (≈ 4 µM)	0.625 µg/mL (≈ 0.5 µM)		
C/C=C1/NC(=O)[C@H]([C@@H](C)O)NC(=O)[C@H](CCN)NC(=O)[C@H](CCCCN)NC(=O)[C@H](CC(=O)O)NC(=O)[C@@H](CCN)NC(=O)[C@@H](NC(=O)C[C@H](O)CCCCCCCCCCC)COC(=O)[C@H]([C@H](O)CCl)NC(=O)[C@H]([C@H](O)C(=O)NCC)NC1=O	> 20 µg/mL		10 µg/mL (≈ 8.1 µM)	1.25 µg/mL (≈ 1.01 µM)		
C/C=C1/NC(=O)[C@H]([C@@H](C)O)NC(=O)[C@H](CCN)NC(=O)[C@H](CCCCN)NC(=O)[C@H](CC(=O)O)NC(=O)[C@@H](CCN)NC(=O)[C@@H](NC(=O)C[C@H](O)CCCCCCCCCCC)COC(=O)[C@H]([C@H](O)CCl)NC(=O)[C@H]([C@H](O)C(=O)NCCCN(C)C)NC1=O	> 20 µg/mL		20 µg/mL (≈ 15.5 µM)	1.25 µg/mL (≈ 0.968 µM)		
C/C=C1/NC(=O)[C@H]([C@H](C)O)NC(=O)[C@H](CCN)NC(=O)[C@H](CCCCN)NC(=O)[C@H](CC(=O)O)NC(=O)[C@@H](CCN)NC(=O)[C@@H](NC(=O)C[C@H](O)CCCCCCCCCCC)COC(=O)[C@H]([C@H](O)CCl)NC(=O)[C@H]([C@H](O)C(N)=O)NC1=O	> 20 µg/mL	Activity- clean	0.312 µg/mL (≈ 0.259 µM)	< 1 µg/mL	> 20 mg/kg	
C/C=C1/NC(=O)[C@H]([C@H](C)O)NC(=O)[C@H](CCN)NC(=O)[C@H](CCCCN)NC(=O)[C@H](CC(=O)O)NC(=O)[C@@H](CCN)NC(=O)[C@@H](NC(=O)C[C@H](O)CCCCCCCCCCC)COC(=O)[C@H]([C@H](O)CCl)NC(=O)[C@H]([C@H](O)C(=O)NC)NC1=O	> 20 µg/mL	Activity- clean	1.25 µg/mL (≈ 1.02 µM)	0.156 µg/mL (≈ 0.128 µM)	> 20 mg/kg	
C/C=C1/NC(=O)[C@H]([C@H](C)O)NC(=O)[C@H](CCN)NC(=O)[C@H](CCCCN)NC(=O)[C@H](CC(=O)O)NC(=O)[C@@H](CCN)NC(=O)[C@@H](NC(=O)C[C@H](O)CCCCCCCCCCC)COC(=O)[C@H]([C@H](O)CCl)NC(=O)[C@H]([C@H](O)C(=O)O)NC1=O	> 20 µg/mL		0.625 µg/mL (≈ 0.517 µM)	0.078 µg/mL (≈ 0.0646 µM)		Activity- Positive
C/C=C1/NC(=O)[C@H]([C@H](C)O)NC(=O)[C@H](CCN)NC(=O)[C@H](CCCCN)NC(=O)[C@H](CC(=O)O)NC(=O)[C@@H](CCN)NC(=O)[C@@H](NC(=O)C[C@H](O)CCCCCCCCCCC)COC(=O)[C@H]([C@H](O)CCl)NC(=O)[C@H]([C@H](O)C(=O)NC2CC2)NC1=O	> 20 µg/mL	Activity- clean	5 µg/mL (≈ 4.01 µM)	0.312 µg/mL (≈ 0.25 µM)	> 20 mg/kg	
C/C=C1\NC(=O)[C@H]([C@H](C)O)NC(=O)[C@H](CCN)NC(=O)[C@H](CCCCN)NC(=O)[C@H](CC(=O)O)NC(=O)[C@@H](CCN)NC(=O)[C@@H](NC(=O)C[C@H](O)CCCCCCCCCCC)COC(=O)[C@H]([C@H](O)CCl)NC(=O)[C@H]([C@H](O)C(=O)NC(Cc2ccccc2)C(=O)OC)NC1=O (some centres undefined)	> 20 µg/mL	Activity- clean	10 µg/mL (≈ 7.3 µM)	1.25 µg/mL (≈ 0.913 µM)	> 20 mg/kg	
